In patent US8952024B2, “Herbicidal pyrimidone derivatives” (E I du Pont de Nemours and Company, priority 2009, dated 2015):

Columns and labels:
Assay type in all cases: in vivo
[1] = system: goosegrass (Eleusine indica); assay: Test B pre-/postemergence plant response; settings: Preemergence, 62 g ai/ha; scale 0 to 100 (0 no effect, 100 complete control)
[2] = system: Italian ryegrass (Lolium multiflorum); assay: Test C plant response; settings: Postemergence, scale 0 to 100
Excerpt: (§1) Seeds of plant species selected from bluegrass (annual bluegrass, Poa annua), blackgrass (Alopecurus myosuroides), canarygrass (Phalaris minor), chickweed (common chickweed, Stellaria media), galium (catchweed bedstraw, Galium aparine), bromegrass (downy bromegrass, Bromus tectorum), field poppy (Papaver rhoeas), field violet (Viola arvensis), green foxtail (Setaria viridis), deadnettle (henbit deadnettle, Lamium amplexicaule), Italian ryegrass (Lolium multiflorum), kochia (Kochia scoparia), lambsquarters (Chenopodium album), oilseed rape (Brassica napus), pigweed (Amaranthus retroflexus), Russian thistle (Salsola iberica), spring barley (Hordeum vulgare), spring wheat (Triticum aestivum), buckwheat (wild buckwheat, Polygonum convolvulus), wild mustard (Sinapis arvensis), wild oat (Avena fatua), wild radish (Raphanus raphanistrum), windgrass (Apera spica-venti), winter barley (Hordeum vulgare), and winter wheat (Triticum aestivum) were planted and treated postemergence with test chemicals formulated in a non-phytotoxic solvent mixture which included a surfactant. Plants ranged in height from 2 to 18 cm (1- to 4-leaf stage).
(§2) Treated plants and controls were maintained in a controlled growth environment for 14 days after which time all test plants were visually evaluated and compared to controls. Plant response ratings, summarized in Table C, are based on a scale of 0 to 100 where 0 is no effect and 100 is complete control. A dash (-) response means no test result.

[3] = system: Russian thistle (Salsola iberica); assay: Test C plant response; settings: Postemergence, scale 0 to 100
Excerpt: as §1, §2

[4] = system: blackgrass (Alopecurus myosuroides); assay: Test C plant response; settings: Postemergence, scale 0 to 100
Excerpt: as §1, §2

[5] = system: buckwheat (wild buckwheat, Polygonum convolvulus); assay: Test C plant response; settings: Postemergence, scale 0 to 100
Excerpt: as §1, §2

[6] = system: canarygrass (Phalaris minor); assay: Test C plant response; settings: Postemergence, scale 0 to 100
Excerpt: as §1, §2

[7] = system: deadnettle (henbit deadnettle, Lamium amplexicaule); assay: Test C plant response; settings: Postemergence, scale 0 to 100
Excerpt: as §1, §2

[8] = system: field poppy (Papaver rhoeas); assay: Test C plant response; settings: Postemergence, scale 0 to 100
Excerpt: as §1, §2

[9] = system: field violet (Viola arvensis); assay: Test C plant response; settings: Postemergence, scale 0 to 100
Excerpt: as §1, §2

[10] = system: galium (catchweed bedstraw, Galium aparine); assay: Test C plant response; settings: Postemergence, scale 0 to 100
Excerpt: as §1, §2

[11] = system: spring wheat (Triticum aestivum); assay: Test C plant response; settings: Postemergence, scale 0 to 100
Excerpt: as §1, §2

[12] = system: wild radish (Raphanus raphanistrum); assay: Test C plant response; settings: Postemergence, scale 0 to 100
Excerpt: as §1, §2

[13] = system: winter barley (Hordeum vulgare); assay: Test C plant response; settings: Postemergence, scale 0 to 100
Excerpt: as §1, §2

[14] = system: winter wheat (Triticum aestivum); assay: Test C plant response; settings: Postemergence, scale 0 to 100
Excerpt: as §1, §2

Cc1c(Cl)cccc1-n1c(-c2ccccc2)ncc(C(=O)C2=C(O)CCCC2=O)c1=O [Compound 40]
Plant response rating, Goosegrass [1]: 98

Cc1ccccc1-n1c(-c2cccc(Cl)c2)ncc(C(=O)C2=C(O)CCCC2=O)c1=O [Compound 36]
Plant response rating, Goosegrass [1]: 90

O=C1CCCC(O)=C1C(=O)c1cnc(-c2ccccc2)n(-c2cccc(Br)c2)c1=O [Compound 38]
Plant response rating, Goosegrass [1]: 100

Cc1ccc(-n2c(-c3ccccc3)ncc(C(=O)C3=C(O)CCCC3=O)c2=O)cc1 [Compound 8]
Plant response rating: Ryegrass, Italian ([2]; 31 g ai/ha): 0
Plant response rating: Ryegrass, Italian ([2]; 16 g ai/ha): 0
Plant response rating: Ryegrass, Italian ([2]; 62 g ai/ha): 20
Plant response rating: Ryegrass, Italian ([2]; 125 g ai/ha): 35
Plant response rating: Russian Thistle ([3]; 31 g ai/ha): 90
Plant response rating: Russian Thistle ([3]; 16 g ai/ha): 90
Plant response rating: Russian Thistle ([3]; 62 g ai/ha): 95
Plant response rating: Russian Thistle ([3]; 125 g ai/ha): 95
Plant response rating: Blackgrass ([4]; 31 g ai/ha): 30
Plant response rating: Blackgrass ([4]; 16 g ai/ha): 20
Plant response rating: Blackgrass ([4]; 62 g ai/ha): 35
Plant response rating: Blackgrass ([4]; 125 g ai/ha): 35
Plant response rating: Buckwheat, Wild ([5]; 31 g ai/ha): 65
Plant response rating: Buckwheat, Wild ([5]; 16 g ai/ha): 65
Plant response rating: Buckwheat, Wild ([5]; 62 g ai/ha): 65
Plant response rating: Buckwheat, Wild ([5]; 125 g ai/ha): 65
Plant response rating: Canarygrass ([6]; 31 g ai/ha): 5
Plant response rating: Canarygrass ([6]; 16 g ai/ha): 0
Plant response rating: Canarygrass ([6]; 62 g ai/ha): 10
Plant response rating: Canarygrass ([6]; 125 g ai/ha): 10
Plant response rating: Deadnettle ([7]; 31 g ai/ha): 95
Plant response rating: Deadnettle ([7]; 16 g ai/ha): 85
Plant response rating: Deadnettle ([7]; 62 g ai/ha): 98
Plant response rating: Deadnettle ([7]; 125 g ai/ha): 100
Plant response rating: Field Poppy ([8]; 31 g ai/ha): 20
Plant response rating: Field Poppy ([8]; 16 g ai/ha): 0
Plant response rating: Field Poppy ([8]; 62 g ai/ha): 40
Plant response rating: Field Poppy ([8]; 125 g ai/ha): 60
Plant response rating: Field Violet ([9]; 31 g ai/ha): 65
Plant response rating: Field Violet ([9]; 16 g ai/ha): 10
Plant response rating: Field Violet ([9]; 62 g ai/ha): 65
Plant response rating: Field Violet ([9]; 125 g ai/ha): 65
Plant response rating: Galium ([10]; 31 g ai/ha): 75
Plant response rating: Galium ([10]; 16 g ai/ha): 50
Plant response rating: Galium ([10]; 62 g ai/ha): 90
Plant response rating: Galium ([10]; 125 g ai/ha): 90
Plant response rating: Wheat, Spring ([11]; 31 g ai/ha): 5
Plant response rating: Wheat, Spring ([11]; 16 g ai/ha): 5
Plant response rating: Wheat, Spring ([11]; 62 g ai/ha): 5
Plant response rating: Wheat, Spring ([11]; 125 g ai/ha): 20
Plant response rating: Radish, Wild ([12]; 31 g ai/ha): 95
Plant response rating: Radish, Wild ([12]; 16 g ai/ha): 85
Plant response rating: Radish, Wild ([12]; 62 g ai/ha): 98
Plant response rating: Radish, Wild ([12]; 125 g ai/ha): 100
Plant response rating: Barley, Winter ([13]; 31 g ai/ha): 20
Plant response rating: Barley, Winter ([13]; 16 g ai/ha): 0
Plant response rating: Barley, Winter ([13]; 62 g ai/ha): 20
Plant response rating: Barley, Winter ([13]; 125 g ai/ha): 40
Plant response rating: Wheat, Winter ([14]; 31 g ai/ha): 10
Plant response rating: Wheat, Winter ([14]; 16 g ai/ha): 10
Plant response rating: Wheat, Winter ([14]; 62 g ai/ha): 25
Plant response rating: Wheat, Winter ([14]; 125 g ai/ha): 30

Cc1cccc(Cl)c1-n1c(-c2ccccc2)ncc(C(=O)C2=C(O)CCCC2=O)c1=O [Compound 46]
Plant response rating, Goosegrass [1]: 95

Cc1ccccc1-n1c(-c2ccccc2)ncc(C(=O)C2=C(O)CCCC2=O)c1=O [Compound 12]
Plant response rating: Ryegrass, Italian ([2]; 31 g ai/ha): 0
Plant response rating: Ryegrass, Italian ([2]; 16 g ai/ha): 0
Plant response rating: Ryegrass, Italian ([2]; 62 g ai/ha): 0
Plant response rating: Ryegrass, Italian ([2]; 125 g ai/ha): 0
Plant response rating: Russian Thistle ([3]; 31 g ai/ha): 60
Plant response rating: Russian Thistle ([3]; 16 g ai/ha): 60
Plant response rating: Russian Thistle ([3]; 62 g ai/ha): 60
Plant response rating: Russian Thistle ([3]; 125 g ai/ha): 70
Plant response rating: Blackgrass ([4]; 31 g ai/ha): 20
Plant response rating: Blackgrass ([4]; 16 g ai/ha): 0
Plant response rating: Blackgrass ([4]; 62 g ai/ha): 30
Plant response rating: Blackgrass ([4]; 125 g ai/ha): 40
Plant response rating: Buckwheat, Wild ([5]; 31 g ai/ha): 15
Plant response rating: Buckwheat, Wild ([5]; 16 g ai/ha): 10
Plant response rating: Buckwheat, Wild ([5]; 62 g ai/ha): 50
Plant response rating: Buckwheat, Wild ([5]; 125 g ai/ha): 50
Plant response rating: Deadnettle ([7]; 31 g ai/ha): 100
Plant response rating: Deadnettle ([7]; 16 g ai/ha): 100
Plant response rating: Deadnettle ([7]; 62 g ai/ha): 100
Plant response rating: Deadnettle ([7]; 125 g ai/ha): 100
Plant response rating: Field Violet ([9]; 31 g ai/ha): 35
Plant response rating: Field Violet ([9]; 16 g ai/ha): 35
Plant response rating: Field Violet ([9]; 62 g ai/ha): 40
Plant response rating: Field Violet ([9]; 125 g ai/ha): 40
Plant response rating: Galium ([10]; 31 g ai/ha): 50
Plant response rating: Galium ([10]; 16 g ai/ha): 5
Plant response rating: Galium ([10]; 62 g ai/ha): 60
Plant response rating: Galium ([10]; 125 g ai/ha): 80
Plant response rating: Wheat, Spring ([11]; 31 g ai/ha): 0
Plant response rating: Wheat, Spring ([11]; 16 g ai/ha): 0
Plant response rating: Wheat, Spring ([11]; 62 g ai/ha): 0
Plant response rating: Wheat, Spring ([11]; 125 g ai/ha): 0
Plant response rating: Radish, Wild ([12]; 31 g ai/ha): 80
Plant response rating: Radish, Wild ([12]; 16 g ai/ha): 60
Plant response rating: Radish, Wild ([12]; 62 g ai/ha): 90
Plant response rating: Radish, Wild ([12]; 125 g ai/ha): 90
Plant response rating: Barley, Winter ([13]; 31 g ai/ha): 0
Plant response rating: Barley, Winter ([13]; 16 g ai/ha): 0
Plant response rating: Barley, Winter ([13]; 62 g ai/ha): 0
Plant response rating: Barley, Winter ([13]; 125 g ai/ha): 0
Plant response rating: Wheat, Winter ([14]; 31 g ai/ha): 0
Plant response rating: Wheat, Winter ([14]; 16 g ai/ha): 0
Plant response rating: Wheat, Winter ([14]; 62 g ai/ha): 0
Plant response rating: Wheat, Winter ([14]; 125 g ai/ha): 10
Plant response rating, Goosegrass [1]: 95

Cc1ccc(F)cc1-n1c(-c2ccccc2)ncc(C(=O)C2=C(O)CCCC2=O)c1=O [Compound 44]
Plant response rating, Goosegrass [1]: 98

COc1ccc(-n2c(-c3ccccc3)ncc(C(=O)C3=C(O)CCCC3=O)c2=O)cc1 [Compound 4, 5-[(2-hydroxy-6-oxo-cyclohexen-1-yl)carbonyl]-3-(4-methoxyphenyl)-2-phenyl-4(3H)-pyrimidinone]
Plant response rating: Ryegrass, Italian ([2]; 31 g ai/ha): 10
Plant response rating: Ryegrass, Italian ([2]; 125 g ai/ha): 15
Plant response rating: Russian Thistle ([3]; 31 g ai/ha): 70
Plant response rating: Russian Thistle ([3]; 125 g ai/ha): 95
Plant response rating: Blackgrass ([4]; 31 g ai/ha): 20
Plant response rating: Blackgrass ([4]; 125 g ai/ha): 40
Plant response rating: Buckwheat, Wild ([5]; 31 g ai/ha): 95
Plant response rating: Buckwheat, Wild ([5]; 125 g ai/ha): 100
Plant response rating: Canarygrass ([6]; 31 g ai/ha): 0
Plant response rating: Canarygrass ([6]; 125 g ai/ha): 90
Plant response rating: Deadnettle ([7]; 31 g ai/ha): 98
Plant response rating: Deadnettle ([7]; 125 g ai/ha): 100
Plant response rating: Field Poppy ([8]; 31 g ai/ha): 30
Plant response rating: Field Poppy ([8]; 125 g ai/ha): 50
Plant response rating: Field Violet ([9]; 31 g ai/ha): 40
Plant response rating: Field Violet ([9]; 125 g ai/ha): 60
Plant response rating: Galium ([10]; 31 g ai/ha): 65
Plant response rating: Galium ([10]; 125 g ai/ha): 90
Plant response rating: Wheat, Spring ([11]; 31 g ai/ha): 15
Plant response rating: Wheat, Spring ([11]; 125 g ai/ha): 20
Plant response rating: Radish, Wild ([12]; 31 g ai/ha): 80
Plant response rating: Radish, Wild ([12]; 125 g ai/ha): 95
Plant response rating: Barley, Winter ([13]; 31 g ai/ha): 5
Plant response rating: Barley, Winter ([13]; 125 g ai/ha): 35
Plant response rating: Wheat, Winter ([14]; 31 g ai/ha): 0
Plant response rating: Wheat, Winter ([14]; 125 g ai/ha): 20

O=C1CCCC(O)=C1C(=O)c1cnc(-c2ccccc2)n(-c2ccccc2F)c1=O [Compound 26]
Plant response rating, Goosegrass [1]: 80

CCCCc1ncc(C(=O)C2=C(O)CCCC2=O)c(=O)n1-c1ccccc1 [Compound 42]
Plant response rating, Goosegrass [1]: 95
